# Source: patent publication US12061201B2, “Fluorescent probes for the visualization of FtsZ in gram-positive and gram-negative bacterial pathogens” (Rutgers, The State University of New Jersey, priority 2019, dated 2024)
# “Also recorded” adds a separate entry of the source. Like-named read-outs stand apart in the source and are kept apart here.
# Tests used:
# Test in all cases: Fluorescence anisotropy binding of BOFP to FtsZ
# S. aureus FtsZ (SaFtsZ) = target: T1, S. aureus FtsZ (SaFtsZ) (Staphylococcus aureus, UniProt P0A031); settings: 0.1 μM BOFP, 10 μM SaFtsZ, 37° C.
# T1 sequence (P0A031 1-390): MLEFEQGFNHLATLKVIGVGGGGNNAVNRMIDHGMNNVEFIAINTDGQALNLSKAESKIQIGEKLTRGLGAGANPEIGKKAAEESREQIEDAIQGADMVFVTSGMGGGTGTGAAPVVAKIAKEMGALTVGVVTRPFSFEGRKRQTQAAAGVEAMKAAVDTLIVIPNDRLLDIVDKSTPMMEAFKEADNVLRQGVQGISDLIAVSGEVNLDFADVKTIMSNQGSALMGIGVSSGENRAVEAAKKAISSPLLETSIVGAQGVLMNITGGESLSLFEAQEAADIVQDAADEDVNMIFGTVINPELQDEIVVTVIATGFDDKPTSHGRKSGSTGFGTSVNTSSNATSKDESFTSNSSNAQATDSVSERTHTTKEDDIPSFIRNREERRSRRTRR
# [1] = target: Streptococcus pyogenes FtsZ (SpyFtsZ) (Streptococcus pyogenes, UniProt Q99YV7); settings: for Kd: 50 mM Tris-HCl (pH 7.6), 50 mM KCl
# Experimental: (§1) Fluorescence anisotropy assay for determining the affinities and thermodynamics associated with the binding of BOFP to FtsZ proteins. Fluorescence anisotropy experiments were performed using an AVIV model ATF105 spectrofluorometer at 15, 25, or 37° C. In these experiments, bandwidths were set to 4 nm in both the excitation and emission directions, with the excitation and emission wavelengths being set at 488 nm and 510 nm, respectively. BOFP (0.1 μM) was titrated with increasing concentrations (ranging from 0 to 12 μM) of FtsZ in 120 μL of buffer containing 50 mM Tris-HCl (pH 7.6) and 50 mM KCl. After each protein addition, the samples were equilibrated for 3 minutes, whereupon the fluorescence anisotropy was measured.
# (§2) [formula] In this equation, r0 is the anisotropy of the protein-free compound, r∞ is the anisotropy of the compound in the presence of an infinite concentration of FtsZ, [C]tot is the total concentration of the compound, and [P]tot is the total concentration of protein with each addition. These analyses yielded the equilibrium dissociation constant (Kd) for each binding reaction.
# (§3) The binding free energy (ΔG) at temperature T was derived from the corresponding Kd value determined at T using the following relationship:
# (§4) [formula] The binding enthalpy (ΔH) and entropy (ΔS) were derived from linear fits of the ln(1/Kd) vs. 1/T plots shown in FIGS. 3f and 5e using the following relationship:
# (§5) A quartz ultra-micro cell (Hellma) with a 2×5 mm aperture and a 15 mm center height was used for all measurements. The pathlengths in the excitation and emissions directions were 1 and 0.2 cm, respectively. All steady-state anisotropy experiments were conducted in at least triplicate, with the reported anisotropies reflecting the average values.
# [2] = target: Enterococcus faecalis FtsZ (EfsFtsZ) (Enterococcus faecalis, UniProt O08439); settings: for Kd: 50 mM Tris-HCl (pH 7.6), 50 mM KCl
# Experimental: as §1, §2, §3, §4, §5
# [3] = target: T2, Streptococcus pneumoniae FtsZ (SpnFtsZ) (Streptococcus pneumoniae, UniProt A0A0H2ZNE0); settings: for Kd: 50 mM Tris-HCl (pH 7.6), 50 mM KCl
# T2 sequence (A0A0H2ZNE0 1-419): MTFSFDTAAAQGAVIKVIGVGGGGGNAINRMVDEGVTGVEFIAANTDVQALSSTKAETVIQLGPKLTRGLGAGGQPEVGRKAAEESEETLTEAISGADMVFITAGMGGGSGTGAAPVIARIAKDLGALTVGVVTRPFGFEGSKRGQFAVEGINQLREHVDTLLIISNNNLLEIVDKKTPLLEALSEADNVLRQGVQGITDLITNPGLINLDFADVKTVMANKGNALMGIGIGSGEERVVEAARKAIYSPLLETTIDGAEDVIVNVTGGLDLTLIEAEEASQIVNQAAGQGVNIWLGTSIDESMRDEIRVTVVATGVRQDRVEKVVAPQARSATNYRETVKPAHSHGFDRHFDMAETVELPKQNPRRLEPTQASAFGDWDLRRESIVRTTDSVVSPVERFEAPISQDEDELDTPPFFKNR
# Experimental: as §1, §2, §3, §4, §5
# [4] = target: T3, Enterococcus faecium FtsZ (EfmFtsZ) (Enterococcus faecium, UniProt Q3Y2I1); settings: for Kd: 50 mM Tris-HCl (pH 7.6), 50 mM KCl
# T3 sequence (Q3Y2I1 1-413): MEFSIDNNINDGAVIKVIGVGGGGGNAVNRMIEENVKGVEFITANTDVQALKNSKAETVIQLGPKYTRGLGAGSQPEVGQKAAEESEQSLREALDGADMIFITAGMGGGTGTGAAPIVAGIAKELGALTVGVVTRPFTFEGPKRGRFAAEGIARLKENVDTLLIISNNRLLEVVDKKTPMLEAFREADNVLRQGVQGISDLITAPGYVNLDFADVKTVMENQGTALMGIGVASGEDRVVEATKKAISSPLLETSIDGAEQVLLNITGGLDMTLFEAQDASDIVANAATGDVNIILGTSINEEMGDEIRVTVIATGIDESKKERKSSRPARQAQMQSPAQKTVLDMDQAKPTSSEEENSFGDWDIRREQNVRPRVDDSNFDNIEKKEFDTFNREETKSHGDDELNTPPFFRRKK
# Experimental: as §1, §2, §3, §4, §5
# [5] = linear fit of ln(1/Kd) vs. 1/T, Eq. 3
# Sequence of Streptococcus pyogenes FtsZ (SpyFtsZ) (Q99YV7 entry or part of it): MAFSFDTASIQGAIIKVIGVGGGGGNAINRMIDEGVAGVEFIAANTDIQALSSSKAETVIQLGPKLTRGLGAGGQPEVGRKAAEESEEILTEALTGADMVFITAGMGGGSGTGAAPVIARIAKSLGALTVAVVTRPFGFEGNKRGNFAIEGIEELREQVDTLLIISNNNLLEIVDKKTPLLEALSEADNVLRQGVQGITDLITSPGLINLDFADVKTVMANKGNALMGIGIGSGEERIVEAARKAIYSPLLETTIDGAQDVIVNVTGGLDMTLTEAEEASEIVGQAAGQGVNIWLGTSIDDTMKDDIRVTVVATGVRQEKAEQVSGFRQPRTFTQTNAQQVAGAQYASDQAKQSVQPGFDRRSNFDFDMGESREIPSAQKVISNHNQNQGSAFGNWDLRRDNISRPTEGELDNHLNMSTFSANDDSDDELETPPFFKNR
# Sequence of Enterococcus faecalis FtsZ (EfsFtsZ) (O08439 whole entry): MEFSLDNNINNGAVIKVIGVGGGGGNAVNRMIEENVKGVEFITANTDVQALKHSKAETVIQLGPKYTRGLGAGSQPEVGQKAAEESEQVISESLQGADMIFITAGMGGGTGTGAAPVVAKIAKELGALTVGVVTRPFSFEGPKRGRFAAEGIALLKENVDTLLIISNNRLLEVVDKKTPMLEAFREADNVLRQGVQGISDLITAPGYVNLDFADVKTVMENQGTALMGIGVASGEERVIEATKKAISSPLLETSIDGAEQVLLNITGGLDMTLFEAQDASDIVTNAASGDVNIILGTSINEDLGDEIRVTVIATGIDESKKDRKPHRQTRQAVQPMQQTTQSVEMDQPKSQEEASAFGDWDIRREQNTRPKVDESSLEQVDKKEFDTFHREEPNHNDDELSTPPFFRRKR
smiles,measurement,setting,value
"CC1=CC(C)=[N+]2C1=Cc1ccc(CCC(=O)OCC(Oc3ccc(F)c(C(N)=O)c3F)c3nc(-c4ccc(C(F)(F)F)cc4)c(Br)o3)n1[B-]2(F)F (centres unmarked) [BOFP, 2-(5-bromo-4-(4-(trifluoromethyl)phenyl)-oxazol-2-yl)-2-(3-carbamoyl-2,4-difluorophenoxy)ethyl 3-(5,5-difluoro-7,9-dimethyl-5H-5λ^4,6λ^4-dipyrrolo[1,2-c:2′,1′-f][1,3,2]diazaborinin-3-yl)propanoate]",effect of both GMPCPP and MgCl2 on the anisotropy of SaFtsZ-bound BOFP,S. aureus FtsZ (SaFtsZ); GMPCPP 0.1 mM and MgCl2 10 mM,modest increase in the anisotropy
same,effect of GMPCPP alone or MgCl2 alone on the anisotropy of SaFtsZ-bound BOFP,S. aureus FtsZ (SaFtsZ); GMPCPP 0.1 mM or MgCl2 10 mM,neither GMPCPP alone (at 0.1 mM) nor MgCl2 alone (at 10 mM) has a significant effect; also recorded: independent of either GTP or magnesium
same,ΔH contribution to the observed ΔG of binding,[1],> 50%
same,Kd,"[1]; 15° C., read-out: Kd −15° C.",910 ± 60 nM
same,Kd,"[1]; 25° C., read-out: Kd −25° C.",1310 ± 80 nM
same,Kd,"[1]; 37° C., read-out: Kd −37° C.",1550 ± 80 nM
same,ΔG,"[1]; T = 310K (37° C.), Eq. 2",-8.2 ± 0.1 kcal/mol
same,ΔH,[1]; [5],-4.3 ± 1.1 kcal/mol
same,ΔS,[1]; [5],+12.8 ± 3.7 cal/mol · K
same,enthalpic contribution (ΔH) to the observed ΔG of binding,[2],100%
same,Kd,"[2]; 15° C., read-out: Kd −15° C.",1720 ± 60 nM
same,Kd,"[2]; 25° C., read-out: Kd −25° C.",3050 ± 250 nM
same,Kd,"[2]; 37° C., read-out: Kd −37° C.",4620 ± 120 nM
same,ΔG,"[2]; T = 310K (37° C.), Eq. 2",-7.6 ± 0.1 kcal/mol
same,ΔH,[2]; [5],-7.9 ± 1.0 kcal/mol
same,ΔS,[2]; [5],−1.2 ± 3.3 cal/mol · K
same,ΔS contribution to the observed ΔG of binding,[3],> 50%
same,Kd,"[3]; 15° C., read-out: Kd −15° C.",3020 ± 300 nM
same,Kd,"[3]; 25° C., read-out: Kd −25° C.",3490 ± 250 nM
same,Kd,"[3]; 37° C., read-out: Kd −37° C.",3810 ± 690 nM
same,ΔG,"[3]; T = 310K (37° C.), Eq. 2",-7.7 ± 0.1 kcal/mol
same,ΔH,[3]; [5],-1.9 ± 0.3 kcal/mol
same,ΔS,[3]; [5],+18.7 ± 1.2 cal/mol · K
same,ΔS contribution to the observed ΔG of binding,[4],> 50%
same,Kd,"[4]; 15° C., read-out: Kd −15° C.",2500 ± 140 nM
same,Kd,"[4]; 25° C., read-out: Kd −25° C.",2620 ± 80 nM
same,Kd,"[4]; 37° C., read-out: Kd −37° C.",3140 ± 220 nM
same,ΔH,[4]; [5],-1.9 ± 0.6 kcal/mol
same,ΔS,[4]; [5],+19.2 ± 1.9 cal/mol · K
